Drawing on ChEMBL document CHEMBL1149998, “Tannins as selective inhibitors of protein kinase C” (Bioorg Med Chem Lett, 1992), this text covers IC50 and Phorbol displacement for 37 compounds.

A word on the IC50: it is the point on the concentration scale where inhibition reaches its midpoint. Read a low IC50 as greater potency in that assay.

For one assay, the target named is Protein kinase C (PKC). Briefly: Inhibitory activity against protein kinase C (PKC). The format is protein assay, Homo sapiens.
Assay [1] has as its target Protein kinase C, PKC; classical/novel (Homo sapiens) (UniProt O94806+P17252+P05129+Q05655+P05771+Q02156+P24723+Q15139+Q04759). The assay is described as follows: Displacement of phorbol [3H]PDBu from protein kinase C; A - Did displace phorbol (PDBu) at 50 uM or less. The format is protein assay.
A short description of assay [2]: Inhibitory activity against c-AMP kinase; Did not inhibit c-AMP kinase.

`Oc1cc(O)c2c(c1)O[C@H](c1ccc(O)c(O)c1)C(O)C2` (stereo partly drawn): the IC50 against Protein kinase C (PKC) was > 100 µM.
`Oc1cc(O)c2c(c1)O[C@H](c1ccc(O)c(O)c1)[C@H](O)[C@H]2c1c(O)cc(O)c2c1O[C@H](c1ccc(O)c(O)c1)[C@H](O)[C@H]2c1c(O)cc(O)c2c1O[C@H](c1ccc(O)c(O)c1)[C@H](O)C2` [PROCYANIDIN C1]: the IC50 on Protein kinase C (PKC) was 40 µM; in assay [2], “Not Active”. Besides, in assay [1], the Phorbol displacement was < 50 µM.
Take `O=C(OC[C@H]1OC(O)[C@@](O)(COC(=O)c2cc(O)c(O)c(O)c2)[C@@H]1O)c1cc(O)c(O)c(O)c1` (stereo partly drawn) [HAMAMELITANNIN]: the IC50 against Protein kinase C (PKC) is > 100 µM.
Still for that read-out and setting: then `O=C1O[C@H]2[C@H](O)[C@@H](OC(=O)c3cc(O)c(O)c4c3C3C1=CC(=O)C(O)(O)C3(O)O4)[C@@H](OC(=O)c1cc(O)c(O)c(O)c1)O[C@@H]2CO` (stereo partly drawn), with 86 µM.
The same measure, in the same setting: then `O=C(OC[C@H]1O[C@@H](OC(=O)c2cc(O)c(O)c(O)c2)[C@H](O)[C@@H](O)[C@@H]1O)c1cc(O)c(O)c(O)c1`, with > 100 µM.
With `O=C(OC[C@H]1O[C@H](O)[C@@](O)(COC(=O)c2cc(O)c(O)c(O)c2)[C@@H]1OC(=O)c1cc(O)c(O)c(O)c1)c1cc(O)c(O)c(O)c1`, the IC50 against Protein kinase C (PKC) is > 100 µM.
The same measure, in the same setting: then `O=C(OC[C@H]1O[C@H](OC(=O)c2cc(O)c(O)c(O)c2)[C@H](O)[C@@H](O)[C@@H]1OC(=O)c1cc(O)c(O)c(O)c1)c1cc(O)c(O)c(O)c1`, with > 100 µM.
`O=C(O[C@@H]1C[C@](OC(=O)c2cc(O)c(O)c(O)c2)(C(=O)O)C[C@@H](OC(=O)c2cc(O)c(O)c(O)c2)[C@H]1OC(=O)c1cc(O)c(O)c(O)c1)c1cc(O)c(O)c(O)c1`: the figures for the IC50 (against Protein kinase C (PKC); in assay [2]) were 64 µM and “Not Active”, respectively. Further, in assay [1], the Phorbol displacement is < 50 µM.
For `O=C(OC[C@H]1O[C@H](OC(=O)c2cc(O)c(O)c(O)c2)[C@H](OC(=O)c2cc(O)c(O)c(O)c2)[C@@H](OC(=O)c2cc(O)c(O)c(O)c2)[C@@H]1O)c1cc(O)c(O)c(O)c1`, in that order: 20 µM, “Not Active” and < 50 µM.
Turning to `O=C(O)C1=C[C@@H](O)[C@@H](O)[C@H](OC(=O)c2cc(O)c(O)c(OC(=O)c3cc(O)c(O)c(O)c3)c2)C1`, the IC50 on Protein kinase C (PKC) is > 100 µM.
As to `Oc1cc(O)c2c(c1)O[C@@]1(c3ccc(O)c(O)c3)Oc3cc(O)c4c(c3C2[C@H]1O)O[C@H](c1ccc(O)c(O)c1)[C@H](O)C4c1c(O)cc(O)c2c1O[C@H](c1ccc(O)c(O)c1)[C@H](O)C2` (stereo partly drawn), the IC50 at Protein kinase C (PKC) was 30 µM; in assay [2], “Not Active”. For the same compound, the Phorbol displacement in assay [1] was < 50 µM.
On the same counts, the results for `O=C(O[C@H]1[C@H](O)C[C@](OC(=O)c2cc(O)c(O)c(O)c2)(C(=O)O)C[C@H]1OC(=O)c1cc(O)c(O)c(O)c1)c1cc(O)c(O)c(O)c1` are > 100 µM, “Not Active” and < 50 µM.
For `CC1(C)CC[C@]2(C(=O)O[C@@H]3O[C@H](CO)[C@@H](O)[C@H](O)[C@H]3O)CC[C@]3(C)C(=CC[C@@H]4[C@@]5(C)C[C@@H](O)[C@@H]6OC(=O)c7cc(O)c(O)c(O)c7-c7c(cc(O)c(O)c7O)C(=O)OC[C@@]6(CO)C5CC[C@]43C)C2C1` (stereo partly drawn), in that order: 18 µM, “Not Active” and < 50 µM.
In turn, `O=C(O)C[C@@H]1C(=O)O[C@H]2[C@H](OC(=O)c3cc(O)c(O)c(O)c3)[C@@H](OC(=O)c3cc(O)c(O)c4c3[C@H]1[C@H](O)C(=O)O4)[C@@H](OC(=O)c1cc(O)c(O)c(O)c1)O[C@@H]2COC(=O)c1cc(O)c(O)c(O)c1` showed an IC50 on Protein kinase C (PKC) of 30 µM.
As to `O=C1OCC2OC(=O)c3cc(O)c(O)c(O)c3-c3c(O)c(O)c(O)c4c3C(=O)OC(C2OC(=O)c2cc(O)c(O)c(O)c2-c2c1cc(O)c(O)c2O)C1OC(=O)c2c-4c(O)c(O)c(O)c2[C@@H]1O` (stereo partly drawn), the IC50 against Protein kinase C (PKC) is 4 µM; in assay [2], “Not Active”. In addition, the Phorbol displacement in assay [1] is < 50 µM.
For `O=C1OCC2OC(=O)c3cc(O)c(O)c(O)c3-c3c(O)c(O)c(O)c4c3C(=O)OC(C2OC(=O)c2cc(O)c(O)c(O)c2-c2c1cc(O)c(O)c2O)C1OC(=O)c2c-4c(O)c(O)c(O)c2[C@H]1O` (stereo partly drawn), in that order: 8 µM, “Not Active” and < 50 µM.
On the same counts, the results for `C=C1O[C@H]2[C@@H]3OC(=O)c4cc(O)c(O)c(O)c4-c4c(cc(O)c(O)c4O)C(=O)OC[C@H]2O[C@@H](OC(=O)c2cc(O)c(O)c(O)c2)[C@@H]3OC(=O)c2cc(O)c(O)c3c2C2C(O)(O3)C3(O)OC4(C(=O)OC5C(O)COC54O)C12CC3=O` (stereo partly drawn) are 17 µM, “Not Active” and < 50 µM.
For `O=C(OC[C@H]1O[C@@H](O)[C@H](OC(=O)c2cc(O)c(O)c(O)c2)[C@@H](OC(=O)c2cc(O)c(O)c(O)c2)[C@@H]1OC(=O)c1cc(O)c(O)c(O)c1)c1cc(O)c(O)c(O)c1`, in that order: 82 µM, “Not Active” and < 50 µM.
Consider `O=C(OC1Cc2c(O)cc(O)c([C@H]3c4c(O)cc(O)c([C@H]5c6c(O)cc(O)cc6O[C@H](c6ccc(O)c(O)c6)[C@@H]5OC(=O)c5cc(O)c(O)c(O)c5)c4O[C@H](c4ccc(O)c(O)c4)C3OC(=O)c3cc(O)c(O)c(O)c3)c2O[C@@H]1c1ccc(O)c(O)c1)c1cc(O)c(O)c(O)c1` (stereo partly drawn), for which the figures for the IC50 (against Protein kinase C (PKC); in assay [2]) were 2 µM and “Not Active”, respectively. In addition, the Phorbol displacement in assay [1] was < 50 µM.
For `CC1(C)CC[C@]2(C(=O)O)CC[C@]3(C)C(=CCC4[C@@]5(C)C[C@@H](O)[C@@H]6OC(=O)c7cc(O)c(O)c(O)c7-c7c(cc(O)c(O)c7O)C(=O)OC[C@@]6(CO)C5CC[C@]43C)C2C1` (stereo partly drawn), in that order: 23 µM, “Not Active” and < 50 µM.
`O=C(O)C1=C[C@@H](OC(=O)c2cc(O)c(O)c(O)c2)[C@@H](O)[C@H](OC(=O)c2cc(O)c(O)c(O)c2)C1`: the IC50 at Protein kinase C (PKC) was > 100 µM.
`O=C1OCC2OC(=O)c3cc(O)c(O)c(O)c3-c3c(O)c(O)c(O)c4c3C(=O)OC(C2OC(=O)c2cc(O)c(O)c(O)c2-c2c1cc(O)c(O)c2O)C1OC(=O)c2c-4c(O)c(O)c(O)c2[C@@H]1[C@@]1(O)O[C@@H](CO)[C@@H](O)[C@H]1O` (stereo partly drawn): the IC50 against Protein kinase C (PKC) was 12 µM; in assay [2], “Not Active”. The Phorbol displacement in assay [1] was < 50 µM.
As to `Oc1cc(O)c2c(c1)O[C@H](c1ccc(O)c(O)c1)C(O)[C@H]2c1c(O)cc(O)c2c1O[C@H](c1ccc(O)c(O)c1)C(O)C2` (stereo partly drawn), the IC50 against Protein kinase C (PKC) is > 100 µM.
Still for that read-out and setting: then `O=C(O[C@@H]1C[C@](O)(C(=O)O)C[C@@H](OC(=O)c2cc(O)c(O)c(O)c2)[C@H]1OC(=O)c1cc(O)c(O)c(O)c1)c1cc(O)c(O)c(O)c1`, with > 100 µM; and `O=C(O)C1=C[C@@H](O)[C@@H](O)[C@H](OC(=O)c2cc(O)c(O)c(O)c2)C1`, with > 100 µM; and `O=C(O[C@@H]1O[C@@H]2COC(=O)c3cc(O)c(O)c(O)c3-c3c(cc(O)c(O)c3O)C(=O)O[C@H]([C@H]1O)[C@@H]2O)c1cc(O)c(O)c(O)c1` [CORILAGIN], with 20 µM.
Consider `O=C(O[C@H]1[C@H](O)C[C@](OC(=O)c2cc(O)c(O)c(O)c2)(C(=O)O)C[C@H]1O)c1cc(O)c(O)c(O)c1`, for which the values for the IC50 (against Protein kinase C (PKC); in assay [2]) were > 100 µM and “Not Active”, respectively.
Consider `O=C(O[C@@H]1O[C@@H]2COC(=O)c3cc(O)c(O)c(O)c3-c3c(cc(O)c(O)c3O)C(=O)O[C@H]([C@H]1OC(=O)c1cc(O)c(O)c(O)c1)[C@@H]2OC(=O)c1cc(O)c(O)c(O)c1)c1cc(O)c(O)c(O)c1` [PUNICAFOLIN], for which the IC50 against Protein kinase C (PKC) is 4 µM; in assay [2] it was “Not Active”. Also, the Phorbol displacement in assay [1] was < 50 µM.
`O=C1OC2COC(=O)c3cc(O)c(O)c(O)c3-c3c(O)c(O)c4oc(=O)c5c(c(O)c(O)c6oc(=O)c3c4c65)-c3c(cc(O)c(O)c3O)C(=O)OC2C2OC(=O)c3c(c(O)c(O)c(O)c3-c3c(O)c(O)c(O)c4c3C(=O)OC2[C@@H]4O)-c2c1cc(O)c(O)c2O` (stereo partly drawn): the IC50 against Protein kinase C (PKC) is 4 µM.
Still for that read-out and setting: next, `O=C(O)C[C@@H]1C(=O)O[C@H]2[C@@H]3OC(=O)c4cc(O)c(O)c(O)c4-c4c(cc(O)c(O)c4O)C(=O)OC[C@H]2O[C@@H](OC(=O)c2cc(O)c(O)c(O)c2)[C@@H]3OC(=O)c2cc(O)c(O)c3c2[C@H]1[C@H](O)C(=O)O3` [CHEBULAGIC ACID]: 30 µM.
Take `O=C1O[C@H]2[C@@H]3OC(=O)c4cc(O)c(O)c(O)c4-c4c(cc(O)c(O)c4O)C(=O)OC[C@H]2O[C@H](OC(=O)c2cc(O)c(O)c(O)c2)[C@@H]3OC(=O)c2cc(O)c(O)c3c2C2C1=CC(=O)C(O)(O)C2(O)O3` (stereo partly drawn): the figures for the IC50 (against Protein kinase C (PKC); in assay [2]) were 11 µM and “Not Active”, respectively.
On to `O=C(O[C@H]1[C@H](O)C[C@](O)(C(=O)O)C[C@H]1O)c1cc(O)c(O)c(O)c1`, for which the IC50 against Protein kinase C (PKC) is > 100 µM.
Same read-out and setting: then `O=C(O[C@@H]1O[C@H](CO)[C@@H](O)[C@H](O)[C@H]1O)c1cc(O)c(O)c(O)c1`, with > 100 µM.
Same read-out and setting: then `O=C(OC[C@H]1O[C@@H](OC(=O)c2cc(O)c(O)c(O)c2)[C@H](OC(=O)c2cc(O)c(O)c(O)c2)[C@@H](O)[C@@H]1O)c1cc(O)c(O)c(O)c1`, with > 100 µM.
Regarding `O=C(OC[C@H]1O[C@@H](OC(=O)c2cc(O)c(O)c(O)c2)[C@H](OC(=O)c2cc(O)c(O)c(O)c2)[C@@H](OC(=O)c2cc(O)c(O)c(O)c2)[C@@H]1OC(=O)c1cc(O)c(O)c(O)c1)c1cc(O)c(O)c(O)c1` [PENTAGALLOYL GLUCOSE], the IC50 against Protein kinase C (PKC) was 4 µM. In assay [1], the Phorbol displacement is < 50 µM.
For `CC1O[C@H](O)C2OC(=O)c3cc(O)c(O)c(O)c3-c3c(cc(O)c(O)c3O)C(=O)OC2C1O` (stereo partly drawn), at Protein kinase C (PKC), the IC50 was > 100 µM.
Regarding `Oc1cc(O)c2c(c1)O[C@@]1(c3ccc(O)c(O)c3)Oc3cc(O)c4c(c3C2[C@H]1O)O[C@H](c1ccc(O)c(O)c1)[C@H](O)C4`, at Protein kinase C (PKC), the IC50 was > 100 µM.
